From patent US10058612B2, “Impaired energy processing disorders and mitochondrial deficiency” (priority 2011, dated 2018)
Entries after “also recorded” stand apart in the source; their conditions may differ. Read-outs that look alike come from different tables or passages of the source.

How the values were obtained:
[1] = Kinetics of O2 consumption during AMVN-initiated oxidation (glass capillary microvolumeter); type: physicochemical; conditions: for rate of oxidation, ROX: 0.71 M in chlorobenzene, 40 mM AMVN
Procedure: FIG. 7. Kinetics of O2 consumption accompanied the oxidation of 0.71 M LA (plots 1 and 2) and 0.71 M D2-LA (plot 3) in chlorobenzene initiated by 40 mM AMVN at 37° C. Plot 2-0.23 mM HPMC was added to 0.71 M LA.
The kinetics of oxygen consumption during the oxidation of LA and D2-LA was studied with a glass capillary microvolumeter (FIG. 7). The rate of oxidation, ROX, was measured as a slope of [O2] traces. The rate of initiation, RIN, was determined by the inhibitor method with HPMC (“6-hydroxy-2,2,5,7,8-pentamethylbenzochroman”) as a reference inhibitor. RIN was calculated from the induction period of inhibited oxidation, tIND: RIN=2·[HPMC]/tIND. […] See Carpenter, “Determination of Organic Reaction Mechanisms” (John Wiley & Sons, 1984), p. 89.

[2] = system: wild-type (strain W303-1B) cells; conditions: four hour treatment; cited from earlier work
[3] = system: coq null mutants (Q-less yeast); type: cell-based, S. cerevisiae; conditions: for viability of coq mutants after fatty acid treatment / viability of cells by quantitative colony counting: 200 μM fatty acid; for viability of coq mutants after fatty acid treatment: plate dilution assay; for viability of cells by quantitative colony counting: 1, 2, 4 h
Procedure: FIG. 3. […] Yeast coq3, coq7 and coq9 null mutants were prepared in the W303 yeast genetic background (WT). Yeast strains were grown in YPD medium (1% Bacto-yeast extract, 2% Bacto-peptone, 2% dextrose) and harvested while in log phase growth (OD600 nm=0.1-1.0). Cells were washed twice with sterile water and resuspended in phosphate buffer (0.10 M sodium phosphate, pH 6.2, 0.2% dextrose) to an OD600 nm=0.2. Samples were removed and 1:5 serial dilutions starting at 0.20 OD/ml were plated on YPD plate medium, to provide a zero time untreated control (shown in top left panel). The designated fatty acids were added to 200 μM final concentration to 20 ml of yeast in phosphate buffer. At 2 h, 4 h, and 16 h samples were removed, 1:5 serial dilutions prepared, and spotted onto YPD plate medium. Pictures were taken after 2 days of growth at 30° C.
FIG. 4. […] The fatty acid sensitive assay was performed as described in FIG. 3, except that 100 μl aliquots were removed at 1, 2, and 4 h and, following dilution, spread onto YPD plates. Pictures were taken after 2 to 2.5 days, and the number of colonies counted. Yeast strains include Wild type (circles), atp2 (triangles), or coq3 (squares). Fatty acid treatments include oleic C18:1 (solid line), linolenic, C18:3, n-3 (dashed line) or 11,11,14,14-D4-linolenic, C18:3, n-3, (dotted line).
Q-less yeast (coq mutants) provide an ideal system to assess in vivo autoxidation of fatty acids. Coenzyme Q (ubiquinone or Q) serves as a small lipophilic antioxidant as well as an electron shuttle in the respiratory chain of the mitochondrial inner membrane.
A plate dilution assay can be used to assess PUFA sensitivity. This assay can be performed by spotting serial five-fold dilutions of aliquots onto YPD plate media (FIG. 3). The sensitivity of the different strains can be observed by visual inspection of the density of cells in each spot.

[4] = system: coq null mutants (Q-less yeast); conditions: cited from earlier work
[5] = system: m-Fibroblasts (Frda^L3/L-; h-I54F); assay: Friedreich's ataxia model: viability of FAC/BSO-treated fibroblasts (Promega Cell-Glow); type: cell-based; conditions: for cell survival on co-administration with idebenone: compared with individual administration of idebenone, D-LA, or D-ALA
Procedure: m-Fibroblasts (Frda^L3/L-; h-I54F) have both frataxin alleles deleted and over-express a mutated form of human frataxin (I154F) that is associated with the disease. […] Cells were plated in 48 well-plates and treated with FAC and BSO for 48 h and 24 h respectively. […] At the end of the experiment, cell viability was assessed by the Promega Cell-Glow kit and measured in Arbitrary Luminescence Units (ALU) also expressed as % survival (FIG. 22). In FIG. 22, NT stands for not treated; F stands for iron ammonium citrate; B stands for buthionine sulphoximine; CC stands for carrier control DMSO (dimethylsulfoxide) used to bring the final concentration in the assay to 0.5%; and IDB stands for idebenone.
Likewise, an investigation was undertaken to measure the effects of co-administering idebenone with D-PUFAs (FIG. 23).
Additional experiments were also performed to study the effects of co-administering different D-PUFAs (data not shown). I154F cells were treated with either 100% D-LA, 75% D-LA/25% D-ALA, 50% D-LA/50% D-ALA, and 100% D-ALA.

[6] = Study in patients suffering from Bipolar Disorder; conditions: in vivo
Procedure: (§1) Patients with schizophrenia and free of antipsychotic medication are selected for the study. […] Each week, patients are evaluated for frequency and duration of schizophrenic episodes. Additionally, blood samples are taken each week and biomarkers of oxidative stress, such as the biomarkers described above, are measured.
A similar study can be performed with patients suffering from Bipolar Disorder.

[7] = Study in patients suffering from Huntington's disease; conditions: in vivo
Procedure: as §1
A similar study can be performed with patients suffering from Huntington's disease.

[8] = system: Q-less coq3 yeast strains; conditions: 200 μM total ALA and D4-Lnn
Procedure: FIG. 10. […] Serial dilutions (1:5) starting at 0.2 OD/ml were spotted on YPD solid plate medium. Growth at 30° C.
Serial dilutions (1:5) starting at 0.2 OD/ml were spotted on YPD solid plate medium. Growth was at 30° C.

[9] = Incorporation into animal tissues by isotope ratio mass-spectrometry; conditions: 0.01-100 mg/kg diet; brain, liver, heart, lung
Procedure: Brain, liver, heart, and lung tissue are removed, and homogenate samples from control mice and test compound-treated mice are analyzed for deuterium content as described for Example 7 above.

[10] = Study in patients with schizophrenia; type: in vivo; conditions: 0.01-100 mg/kg daily over six months
Procedure: as §1

[11] = system: Q-less coq3 yeast strains; assay: Yeast incubation with different ratios of LA to D2-LA, plate dilution; type: cell-based
Procedure: FIG. 9. […] Wild-type, yeast Q-less coq3, or respiratory deficient cor1 null mutants were incubated in the presence of 200 μM of LA and D2-LA at different ratios of PUFAs. Serial dilutions (1:5) starting at 0.2 OD/ml were spotted on YPD solid plate medium. A zero-time untreated control is shown on the top left. Growth at 30° C.
Wild-type, yeast Q-less coq3, or respiratory deficient cor1 null mutants were incubated in the presence of 200 μM of LA and D2-LA at different ratios of PUFAs, as indicated in FIG. 9. Serial dilutions (1:5) starting at 0.2 OD/ml were spotted on YPD solid plate medium. […] Growth was at 30° C.

Wild-type yeast cells = assay: C11-Bodipy 581/591 lipid peroxidation in copper-stressed yeast; type: cell-based; conditions: 200 μM fatty acid 2 hours, then 50 μM CuSO4 60 min
Procedure: Wild-type yeast cells were treated as described above except yeast were treated with 200 μM of the designated fatty acid for 2 hours, washed with sterile water, and were either not treated (triangles) or treated with 50 μM CuSO4 (squares) at room temperature. After 60 min of copper treatment cells were treated with 8 μM C11-Bodipy 581/591 for 30 min at room temperature. Four 100 μl aliquots were plated in a 96-well plate and the fluorescence was measured.

[12] = Kinetics of oxidation of mixtures of D2-LA and LA; type: physicochemical
Procedure: FIG. 8. Dependence of the rate of oxidation of the mixture of LA and D2-LA in chlorobenzene solution on mixture composition. Conditions: [LA]+[11,11-d2-LA]=0.775 M; [AMVN]=0.0217 M; 37° C. RIN=(1.10±0.08)×10^−7 M/sec.
To simulate the likely in vivo conditions, the kinetics of the oxidation of the mixtures of D2-LA and LA were studied (FIG. 8). In the experiments, the concentration of LA plus 11,11-d2-LA was 0.775 M; the concentration of AMVN was 0.0217 M; and the reactions were carried out at 37° C. The results afforded an RIN of 1.10±0.08×10^−7 M/sec.

[13] = design: species or system WT mice; conditions: both, mouse, in vivo, 90 days
From the text: WT mice were housed at 12 animals (males separate from females) per cage and fed for 90 days ad libitum (typically, 5-6 g/day) on the AIN 93 diet, as pellets, with 6% total fat. […] The animals were sacrificed, organs harvested and stored at low temperature prior to analysis without the use of preservation agents.

**Q.** Which “length of the kinetic chain, ν=ROX/RIN” value [1] does the source give for `CCCCC/C=C\C/C=C\CCCCCCCC(=O)O` [LA, cis,cis-9,12-Octadecadienoic acid, reference compound] here?
**A.** Its value is 38±3.

**Q.** What about the “rate of oxidation, ROX” value ([1]; 37° C.) of the same compound?
**A.** The value was 6.1e-06 M/s.

**Q.** What about the oxidizability ([1]; n=5) of the same compound?
**A.** The oxidizability was 0.0215±0.008 M^−0.5s^−0.5.

**Q.** Which results are given for `CC/C=C\C/C=C\C/C=C\CCCCCCCC(=O)O` [ALA, cis,cis,cis-9,12,15-Octadecatrienoic acid, reference compound]?
**A.** wild-type cells remaining viable [2]: 70%; viability of coq mutants after fatty acid treatment [3]: dramatic loss of viability; reduction of viability of the coq mutants ([3]; treatment for 4 h, colony counting): more than 100 fold; viable Q-less (coq2, coq3, and coq5) yeast mutants ([4]; four hour treatment): Less than 1%

**Q.** Which “cell survival on co-administration with idebenone” value [5] does the source give for D-ALA here?
**A.** The value was “increased cell survival”.

**Q.** For `[2H]C([2H])(/C=C\CC)/C=C\CC/C=C\CCCCCCC(=O)O` [14, 14-D2-linolenic acid, 14,14-Dideutero-cis,cis,cis-octadeca-8,12,15-trienoic acid], which “viability of coq mutants after fatty acid treatment” value [3] is on record?
**A.** Its value is “comparable protection”.

**Q.** For `CCCCCCCC/C=C\CCCCCCCC(=O)O` [oleic acid, reference compound], which “viability of cells by quantitative colony counting” value [3] is on record?
**A.** Its value is “similar”.

**Q.** And the “sensitivity of Q-less yeast to the fatty acid” value [4]?
**A.** The value was “behave the same as the wild-type parental strain”.

**Q.** With `[2H]C([2H])(/C=C\C/C=C\CC)C/C=C\CCCCCCC(=O)O` [11, 11-D2-linolenic acid, 11,11-Dideutero-cis,cis,cis-octadeca-8,12,15-trienoic acid] as the compound, how does the “viability of coq mutants after fatty acid treatment” value [3] read?
**A.** The value was “comparable protection”.

**Q.** What does the source list for “11,11,14,14-Tetradeutero-cis,cis,cis-octadeca-8,12,15-trienoic acid [D4-ALA]”?
**A.** levels of biomarkers associated with oxidative stress [6]: reduce the levels of biomarkers associated with oxidative stress; levels of biomarkers associated with oxidative stress [7]: reduce neuronal cell death and the levels of biomarkers associated with oxidative stress; minimal amount sufficient to cancel the toxicity of ALA [8]: 15-20%; presence in tissues and cells (deuterium content) [9]: expected to be found in the tissues and cells analyzed; viability of cells by quantitative colony counting [3]: similar; viability of coq mutants after fatty acid treatment ([3]; listed as D4-linolenic acid): resistant to PUFA-mediated cell killing; also recorded: not killed; levels of biomarkers associated with oxidative stress [10]: reduce the levels of biomarkers associated with oxidative stress

**Q.** For `[2H]C(/C=C\CCCCC)/C=C\CCCCCCCC(=O)O` (centres unmarked) [11,11-D,H-LA, [11-^2H]-linoleic acid], which cell viability ([11]; after 3 hours of treatment, data not shown) is on record?
**A.** Its cell viability is “no detectable loss in cell viability”.

**Q.** Which “cell viability (ALU, % survival)” value ([5]; FAC 48 h, BSO 24 h, PUFA added 2 hours after BSO) does the source give for `[2H]C([2H])(/C=C\CCCCC)/C=C\CCCCCCCC(=O)O` [D-LA] here?
**A.** The value was “dose-dependent rescue of viability”.

**Q.** What about the “cell survival on co-administration with idebenone” value [5] of the same compound?
**A.** The value was “increased cell survival”.

**Q.** Which “levels of biomarkers associated with oxidative stress” value (shortened to “levels of biomarkers associated”) [6] does the source give for `[2H]C([2H])(/C=C\CCCCC)/C=C\CCCCCCCC(=O)O` [D2-LA, 11,11-Dideutero-cis,cis-octadeca-9,12-dienoic acid] here?
**A.** Its value is “reduce the levels of biomarkers associated with oxidative stress”.

**Q.** And the “minimal amount sufficient to cancel the toxicity of LA” value ([11]; 200 μM total LA and D2-LA)?
**A.** The value was 10-15%.

**Q.** And the “levels of biomarkers associated” value [7]?
**A.** The value was “reduce neuronal cell death and the levels of biomarkers associated with oxidative stress”.

**Q.** What about the “levels of lipid peroxidation” value (Wild-type yeast cells) of the same compound?
**A.** The value was “lower levels of lipid peroxidation similar to yeast not treated with PUFA”.

**Q.** And the “protection of non-deuterated LA against autoxidation” value ([12]; mixture with LA)?
**A.** The value was “‘protects’ the non-deuterated LA against autoxidation”.

**Q.** And the protection against autoxidation ([12]; mixture with non-deuterated methyl linoleate, data not shown)?
**A.** Its protection against autoxidation is “qualititatively similar effect”.

**Q.** And the “effect of addition of HPMC on oxidation” value [1]?
**A.** Its value is “did not result in the decrease in ROX and the appearance of any detectable induction period”.

**Q.** And the “length of the kinetic chain, ν=ROX/RIN” value [1]?
**A.** The value was “≈ 1.1”.

**Q.** And the “rate of oxidation, ROX” value ([1]; 37° C.)?
**A.** The value was 1.8e-07 M/s.

**Q.** And the “kinetic isotope effect (KIE) from ROX for LA and D2-LA” value ([1]; chlorobenzene, 37° C.)?
**A.** Its value is “≈ 35”.

**Q.** And the “levels of biomarkers associated” value [10]?
**A.** Its value is “reduce the levels of biomarkers associated with oxidative stress”.

**Q.** What about the “total fat being deuterated, liver” value [13] of the same compound?
**A.** The value was “about 32%”.

**Q.** Which “sensitivity of Q-less yeast to the fatty acid” value [4] does the source give for `CCCCC/C=C\C/C=C\C/C=C\C/C=C\CCCC(=O)O` [arachidonic acid] here?
**A.** The value was “hypersensitive”.
